Experimental data from patent US4181573A, “Process for the production of antibiotic X-14547” (Hoffmann-La Roche Inc., priority 1978, dated 1980).
Converted amounts (≈) assume the structure as drawn. “And” between values parts separate entries of the source, which are not always exact repeats. Equal entries are not always repeated.

Experiments:
[1] = system: Bacillus subtilis NRRL 558; test: Antimicrobial activity, agar well diffusion assay; assay type: cell-based; conditions: NRRL558, lowest twofold dilution giving a zone of inhibition, read-out: Minimum inhibitory concentration
ruminant animals = test: Efficiency of feed utilization on oral administration; assay type: in vivo; conditions: administered orally
[2] = system: volatile fatty acids produced in the rumen; test: In vitro rumen fermentation, ratio of volatile fatty acids (GLC); parameters: species or system steer; conditions: 4 hrs.; for μmoles C3 /μmoles C2 + μmoles nC4, means / μmoles C3 /μmoles C2 + μmoles nC4, replicate fermentations: 38° C.
Description: Rumen fluid is obtained from a steer with a fistulated rumen. The steer is maintained on the following ration:
The rumen fluid is immediately strained through a #30 mesh sieve. For each fermentation, 75 ml of the resulting fluid is added to a 250 ml flask containing the following:
1 g of 80%:20% finely ground grain: hay ration;
1 ml of an 18% aqueous glucose solution (1 millimole per flask);
1.5 ml of a 3.1% aqueous urea solution (0.76 millimole per flask);
60 micromoles of each of the 10 essential amino acids (arginine, histidine, leucine, methionine, threonine, valine, lysine, isoleucine, phenylalanine,tryptophan);
Carbon dioxide is continuously passed through the hood. […] Three ml of the supernate is added to 1 ml of a 25% metaphosphoric acid solution containing 23 micromoles 2-methyl valeric acid as an internal standard. The resulting fluid is permitted to sit at room temperature for 30 minutes. The fluid is filtered through a […] Millipore filter and refrigerated until gas-liquid chromatographic analyses for volatile fatty acids.

[3] = system: Bacillus species E ATCC 27859; test: Antimicrobial activity, agar well diffusion assay; assay type: cell-based; conditions: ATCC27859, lowest twofold dilution giving a zone of inhibition, read-out: Minimum inhibitory concentration
[4] = Oral toxicity (LD50) in mice; conditions: mouse, in vivo
[5] = system: Bacillus species TA ATCC 27860; test: Antimicrobial activity, agar well diffusion assay; assay type: cell-based; conditions: ATCC27860, lowest twofold dilution giving a zone of inhibition, read-out: Minimum inhibitory concentration
[6] = system: Staphylococcus aureus ATCC 6538P; test: Antimicrobial activity, agar well diffusion assay; assay type: cell-based; conditions: ATCC6538P, lowest twofold dilution giving a zone of inhibition, read-out: Minimum inhibitory concentration
[7] = system: Paecilomyces varioti ATCC 26820; test: Antimicrobial activity, agar well diffusion assay; assay type: cell-based; conditions: ATCC26820, lowest twofold dilution giving a zone of inhibition, read-out: Minimum inhibitory concentration
[8] = system: DOCA-Na Sprague Dawley (Charles River) male rats; test: Cardiac rate in DOCA-Na hypertensive rats; assay type: in vivo, rat; conditions: 10 MG/KG × 3 days PO; for CARDIAC RATE, PCT CHANGE: change from pre drug controls; for CARDIAC RATE, individual rats: rats 1-6
Description: (§1) Antihypertensive activity is tested for in the DOCA-Na Sprague Dawley (Charles River) male rats weighing 170-210 grams. DOCA-Na hypertension is produced by unilateral nephrectomy followed by subcutaneous implantation of a 25 mg. desoxycortico sterone (DOCA) pellet. Animals are placed in individual cages receiving 0.9% sodium chloride solution and rat chow diet ad libitum. Two weeks are allowed to elapse from the time of surgery for development of hypertension, i.e., systolic blood pressure of at least 150 mm. Hg.
(§2) Systolic blood pressure and heart rate are measured indirectly from the tail of unanesthetized rats, using a pneumatic pulse transducer. Control readings are taken prior to drug and at 1, 3, 6 and 24 hours post drug.
(§3) The results are expressed as absolute values and percent changes from controls.

[9] = system: Streptomyces cellulosae ATCC 3313; test: Antimicrobial activity, agar well diffusion assay; assay type: cell-based; conditions: ATCC3313, lowest twofold dilution giving a zone of inhibition, read-out: Minimum inhibitory concentration
[10] = system: Mycobacterium phlei ATCC 355; test: Antimicrobial activity, agar well diffusion assay; assay type: cell-based; conditions: Mycolicibacterium phlei, ATCC355, lowest twofold dilution giving a zone of inhibition, read-out: Minimum inhibitory concentration
gram-positive bacteria = test: Growth of gram-positive bacteria (summary in words); assay type: cell-based
[11] = system: Bacillus megaterium ATCC 8011; test: Antimicrobial activity, agar well diffusion assay; assay type: cell-based; conditions: Priestia megaterium, ATCC8011, lowest twofold dilution giving a zone of inhibition, read-out: Minimum inhibitory concentration
Sarcina lutea ATCC 9341 = test: Antimicrobial activity, agar well diffusion assay; assay type: cell-based; conditions: Micrococcus luteus, ATCC9341, lowest twofold dilution giving a zone of inhibition, read-out: Minimum inhibitory concentration
[12] = system: DOCA-Na Sprague Dawley (Charles River) male rats; test: Antihypertensive activity in DOCA-Na hypertensive rats, systolic blood pressure; assay type: in vivo, rat; conditions: 10 MG/KG × 3 days PO; for SYSTOLIC BLOOD PRESSURE, PCT CHANGE: change from pre drug controls
Description: as §1, §2, §3

[13] = system: Bacillus sp. TA ATCC 27860; test: Antimicrobial activity of co-metabolite (M.I.C.); assay type: cell-based; conditions: ATCC27860
Description: (§4) *Minimum inhibitory concentration per ml. in mcg.

[14] = system: Paecilomyces varioti ATCC 26820; test: Antimicrobial activity of co-metabolite (M.I.C.); assay type: cell-based; conditions: ATCC26820
Description: as §4

[15] = system: Pseudomonas aeruginosa ATCC 8709; test: Antimicrobial activity of co-metabolite (M.I.C.); assay type: cell-based; conditions: ATCC8709
Description: as §4

[16] = system: Klebsiella pneumoniae ATCC 27858; test: Antimicrobial activity of co-metabolite (M.I.C.); assay type: cell-based; conditions: ATCC27858
Description: as §4

[17] = system: Staphylococcus aureus ATCC 6538P; test: Antimicrobial activity of co-metabolite (M.I.C.); assay type: cell-based; conditions: ATCC6538P
Description: as §4

[18] = system: Escherichia coli ATCC 27856; test: Antimicrobial activity of co-metabolite (M.I.C.); assay type: cell-based; conditions: ATCC27856
Description: as §4

In the case of `CCC(=CC=CC1C=CC2C(CC)CCC2C1C(=O)c1ccc[nH]1)C1OC(C(C)C(=O)O)CCC1C` [Antibiotic X-14547, α-(R), 5 (S)-dimethyl-6(R)-{1-ethyl-4-[4-(R)-(2-pyrrolyl-carbonyl)-1(S)-ethyl-3a(R),4,5(R),7a(R)-tetrahydroindan-5-yl]-1(E), 3(E)-butadienyl}tetrahydropyran-2-acetic acid], the MIC [1] is reported as 0.1 µg/mL (≈ 0.203 µM), the “efficiency of feed utilization” value (ruminant animals) is reported as “increases the efficiency of feed utilization in ruminant animals” and the “ratio of propionate (C3) to acetates and n-butyrates” value ([2]; 10 and 25 ppm, versus controls) is reported as “significantly improved”. The “μmoles C3 /μmoles C2 + μmoles nC4, means” value ([2]; 10 ppm) was 0.491, the “μmoles C3 /μmoles C2 + μmoles nC4, replicate fermentations” value ([2]; 10 ppm) was 0.493 and 0.489 and the “μmoles C3 /μmoles C2 + μmoles nC4, means” value ([2]; 25 ppm) was 0.521. For the same compound, the “μmoles C3 /μmoles C2 + μmoles nC4, replicate fermentations” value ([2]; 25 ppm) was 0.531 and 0.510, the MIC [3] was 0.2 µg/mL (≈ 0.405 µM) and the LD50 at 24 h [4] was 129 mg/kg. For the same compound, the MIC [5] was 0.2 µg/mL (≈ 0.405 µM), the MIC [6] was 0.2 µg/mL (≈ 0.405 µM) and the MIC [7] was 6.3 µg/mL (≈ 12.8 µM). For the same compound, the “CARDIAC RATE, MEAN” value ([8]; day 1) was 420.0 BEATS/MIN, the “CARDIAC RATE, PCT CHANGE” value ([8]; day 1) was 2.0 PCT and the “CARDIAC RATE, individual rats” value ([8]; day 1) was 480 BEATS/MIN and 360 BEATS/MIN and 450 BEATS/MIN and 440 BEATS/MIN and 390 BEATS/MIN and 400 BEATS/MIN. For the same compound, the “CARDIAC RATE, MEAN” value ([8]; day 2, first line) was 400.0 BEATS/MIN, the “CARDIAC RATE, PCT CHANGE” value ([8]; day 2, first line) was -2.6 PCT and the “CARDIAC RATE, individual rats” value ([8]; day 2, first line) was 430 BEATS/MIN and 320 BEATS/MIN and 360 BEATS/MIN and 490 BEATS/MIN and 370 BEATS/MIN. The “CARDIAC RATE, MEAN” value ([8]; day 2, second line) was 378.3 BEATS/MIN, the “CARDIAC RATE, PCT CHANGE” value ([8]; day 2, second line) was -8.1 PCT and the “CARDIAC RATE, individual rats” value ([8]; day 2, second line) was 420 BEATS/MIN and 310 BEATS/MIN and 400 BEATS/MIN and 380 BEATS/MIN and 450 BEATS/MIN. The “CARDIAC RATE, MEAN” value ([8]; day 3, first line) was 363.3 BEATS/MIN, the “CARDIAC RATE, PCT CHANGE” value ([8]; day 3, first line) was -11.3 PCT and the “CARDIAC RATE, individual rats” value ([8]; day 3, first line) was 380 BEATS/MIN and 360 BEATS/MIN and 370 BEATS/MIN and 350 BEATS/MIN. The “CARDIAC RATE, MEAN” value ([8]; day 3, second line) was 365.0 BEATS/MIN, the “CARDIAC RATE, PCT CHANGE” value ([8]; day 3, second line) was -10.8 PCT and the “CARDIAC RATE, individual rats” value ([8]; day 3, second line) was 370 BEATS/MIN and 360 BEATS/MIN and 350 BEATS/MIN and 380 BEATS/MIN. For the same compound, the “CARDIAC RATE, MEAN” value ([8]; day 4) was 356.7 BEATS/MIN, the “CARDIAC RATE, PCT CHANGE” value ([8]; day 4) was -13.1 PCT and the “CARDIAC RATE, individual rats” value ([8]; day 4) was 370 BEATS/MIN and 320 BEATS/MIN and 360 BEATS/MIN and 350 BEATS/MIN and 340 BEATS/MIN and 400 BEATS/MIN. For the same compound, the MIC [9] was 0.8 µg/mL (≈ 1.62 µM), the MIC [10] was 3.1 µg/mL (≈ 6.28 µM) and the “effect on growth of gram-positive bacteria” value (gram-positive bacteria) was “adversely affecting the growth of certain gram-positive bacteria”. The MIC [11] was 0.1 µg/mL (≈ 0.203 µM), the MIC (Sarcina lutea ATCC 9341) was 0.1 µg/mL (≈ 0.203 µM) and the “SYSTOLIC BLOOD PRESSURE, MEAN” value ([12]; day 1) was 188.3 mmHg. For the same compound, the “SYSTOLIC BLOOD PRESSURE, PCT CHANGE” value ([12]; day 1) was -9.0 PCT, the “SYSTOLIC BLOOD PRESSURE, individual rats” value ([12]; day 1, rats 1-6) was 216 mmHg and 178 mmHg and 184 mmHg and 198 mmHg and 151 mmHg and 203 mmHg and the “SYSTOLIC BLOOD PRESSURE, MEAN” value ([12]; day 2, first line) was 185.7 mmHg. The “SYSTOLIC BLOOD PRESSURE, PCT CHANGE” value ([12]; day 2, first line) was -10.3 PCT, the “SYSTOLIC BLOOD PRESSURE, individual rats” value ([12]; day 2, first line, rats) was 211 mmHg and 201 mmHg and 176 mmHg and 168 mmHg and 190 mmHg and the “SYSTOLIC BLOOD PRESSURE, MEAN” value ([12]; day 2, second line) was 171.3 mmHg. For the same compound, the “SYSTOLIC BLOOD PRESSURE, PCT CHANGE” value ([12]; day 2, second line) was -17.1 PCT, the “SYSTOLIC BLOOD PRESSURE, individual rats” value ([12]; day 2, second line, rats 1-6) was 184 mmHg and 174 mmHg and 161 mmHg and 165 mmHg and 179 mmHg and the “SYSTOLIC BLOOD PRESSURE, MEAN” value ([12]; day 3, first line) was 205.0 mmHg. The “SYSTOLIC BLOOD PRESSURE, PCT CHANGE” value ([12]; day 3, first line) was -0.7 PCT, the “SYSTOLIC BLOOD PRESSURE, individual rats” value ([12]; day 3, first line, rats 1-6) was 214 mmHg and 195 mmHg and 193 mmHg and 219 mmHg and 198 mmHg and 211 mmHg and the “SYSTOLIC BLOOD PRESSURE, MEAN” value ([12]; day 3, second line) was 196.0 mmHg. For the same compound, the “SYSTOLIC BLOOD PRESSURE, PCT CHANGE” value ([12]; day 3, second line) was -5.2 PCT, the “SYSTOLIC BLOOD PRESSURE, individual rats” value ([12]; day 3, second line, rats 1-6) was 210 mmHg and 177 mmHg and 173 mmHg and 206 mmHg and 190 mmHg and 220 mmHg and the “SYSTOLIC BLOOD PRESSURE, MEAN” value ([12]; day 4) was 202.8 mmHg. For the same compound, the “SYSTOLIC BLOOD PRESSURE, PCT CHANGE” value ([12]; day 4) was -1.7 PCT and the “SYSTOLIC BLOOD PRESSURE, individual rats” value ([12]; day 4, rats 1-6) was 197 mmHg and 172 mmHg and 229 mmHg and 212 mmHg and 179 mmHg and 228 mmHg.
`CCC1(OC)C(=O)Nc2ccccc21` (stereo not drawn) [3-ethyl-1,3-dihydro-3-methoxy-2H-indole-2-one] showed an MIC [13] of 2.5 µg/mL, an MIC [14] of 2.5 µg/mL and an MIC [15] of 5 µg/mL. For the same compound, the MIC [16] was 5 µg/mL, the MIC [17] was 5 µg/mL and the MIC [18] was 5 µg/mL. For the same compound, the “effect on growth of gram-positive bacteria” value (gram-positive bacteria) was “adversely affecting the growth of certain gram-positive bacteria”.
